According to patent publication US20260219274A1, “POLYOL SWEETNERS AND CARDIOVASCULAR AND THROMBOTIC EVENT RISK” (THE CLEVELAND CLINIC FOUNDATION, priority 2023, published 2026):

Assay: Xylitol intervention study: postprandial plasma xylitol levels and elimination
Assay type: in vivo
Procedure: A third xylitol intervention study (clinicaltrials.gov number: NCT04731363) included 10 prospectively recruited healthy volunteers (35±11 years of age, 50% male, nonsmokers without CVD, hypertension, or diabetes). Fasting (overnight) subjects were provided a standardized artificially sweetened beverage (300 mL) containing 30 g of xylitol dissolved in water with instructions to rapidly consume the drink (within 2 minutes). In the first part of xylitol ingestion studies, pharmacokinetics studies focused on post-prandial plasma levels and time course of elimination of xylitol. For LC-MS/MS analysis of xylitol, serial venous blood and urine sampling was performed at baseline, 30 min, 1 h, 4 h, 6 h and 24 h to establish postprandial peak levels and the time course of xylitol elimination in the first 4 subjects. After we noticed that xylitol levels were rapidly cleared with postprandial xylitol peak levels at 30 min after ingestion in all 4 subjects, we streamlined our protocol in the interest of being both practical and less demanding on subjects, and sampled blood and urine at baseline and after 30 min for the remainder of subjects.
Stable-isotope-dilution LC-MS/MS was developed to specifically quantify xylitol in human and mouse plasma, urine and feces (fecal pellets were dissolved in water and supernatant subjected to LC-MS/MS). Ice cold methanol (800 μL) and internal standard (^13C2-arabitol) were added to the plasma samples (20 μL) or urine (20 μL) previously diluted in MQ water, followed by vortexing and centrifuging (21,000×g; 4° C. for 15 min). The clear supernatant (800 μL) was transferred into a clean, labeled glass tubes (Borosilicate glass 12×75 mm) and dried in a speed vacuum concentrator (Speed vac plus, SC210, Thermo Sevant). Acetylation was used since xylitol is poorly ionizable in order to achieve better retention on the reverse phase column and separation from other structural isomers as well as better ionization to achieve better sensitivity. The dry residue was reconstituted in acetic anhydride (100 μL) and 4-Dimethylaminopyridine (DMAP) in pyridine (100 μl; 1 mg/mL), sealed with safety caps, vortexed and heated (45 min at 80° C.) followed with drying under nitrogen. Dried residues were dissolved in HCl in water (0.1 M; 0.5 mL) and extracted with ethylacetate (2.0 mL). Ethylacetate layer was transferred into a clean glass tube (Borosilicate glass 12×75 mm) and dried under nitrogen. The dry residue was reconstituted in ammonium formate in a mixture of methanol:water (100 μL; 50:50 v/v with 10 mM ammonium formate), tubes were vortexed and liquid was transferred to glass vials with micro-insets and caped. LC-MS/MS analysis was performed on a chromatographic system consisting of two Shimadzu LC-30 AD pumps (Nexcra X2), a CTO 20AC oven operating at 30° C., and a SIL-30 AC-MP autosampler in tandem with a triple quadruple mass spectrometer (8050 series, Shimadzu Scientific Instruments, Inc., Columbia, MD, USA). For chromatographic separation, a Kinetex C18 column (50 mm×2.1 mm; 2.6 μm) (Cat #00B-4462-AN, Phenomenex, Torrance, CA) was used. […] Electrospray ionization in the positive mode was used with multiple reaction monitoring (MRM) for detection of endogenous and stable isotope labeled internal standards. The following transitions were used: m/z 380 [M^+NH4]^+ […] for xylitol, arabitol and ribitol and m/z 382 [M+NH4]^+→305 for [^13C2]-arabitol. The following ion source parameters were applied: nebulizing gas flow, 3 L/min; heating gas flow, 10 L/min; interface temperature, 300° C.; desolvation line temperature, 250° C.; heat block temperature, 400° C.; and drying gas flow, 10 L/min. Accuracy and precision of the method to quantify xylitol (separated from its structural isomers arabitol and ribitol) were assessed by a standard addition method of pure synthetic standard into different plasma pools. […]

OC[C@@H](O)[C@H](O)[C@@H](O)CO [xylitol]
concentration at 30 min (both sexes, human, plasma, oral, 30 min following ingestion of 30 g xylitol, read-out: plasma levels of xylitol, median [IQR]): 312000 nM
concentration at 4 h (both sexes, human, plasma, oral, 4 h after 30 g xylitol, read-out: plasma xylitol levels, median [IQR]): 1870 nM
concentration at 6 h (both sexes, human, plasma, oral, 6 h after 30 g xylitol, read-out: plasma xylitol levels, median [IQR]): 670 nM
half-life (both sexes, human, plasma, 30 g xylitol oral): 12.6 min
time of postprandial xylitol peak levels (first 4 subjects): 30 min
time to return of postprandial plasma levels to near baseline (healthy volunteers): ≤ 6 h
oral absorption in humans (oral ingestion): readily absorbed
